Measurements reported in US11040031B2, “Pyrazole derivatives as MALT1 inhibitors” (Janssen Pharmaceutica NV, priority 2018, dated 2021).

The compounds below were run against T1, full-length MALT1 protein (Strep-MALT1(1-824)-His) (Homo sapiens, UniProt Q9UDY8) (assay: biochemical).
T1 sequence (Q9UDY8 1-824): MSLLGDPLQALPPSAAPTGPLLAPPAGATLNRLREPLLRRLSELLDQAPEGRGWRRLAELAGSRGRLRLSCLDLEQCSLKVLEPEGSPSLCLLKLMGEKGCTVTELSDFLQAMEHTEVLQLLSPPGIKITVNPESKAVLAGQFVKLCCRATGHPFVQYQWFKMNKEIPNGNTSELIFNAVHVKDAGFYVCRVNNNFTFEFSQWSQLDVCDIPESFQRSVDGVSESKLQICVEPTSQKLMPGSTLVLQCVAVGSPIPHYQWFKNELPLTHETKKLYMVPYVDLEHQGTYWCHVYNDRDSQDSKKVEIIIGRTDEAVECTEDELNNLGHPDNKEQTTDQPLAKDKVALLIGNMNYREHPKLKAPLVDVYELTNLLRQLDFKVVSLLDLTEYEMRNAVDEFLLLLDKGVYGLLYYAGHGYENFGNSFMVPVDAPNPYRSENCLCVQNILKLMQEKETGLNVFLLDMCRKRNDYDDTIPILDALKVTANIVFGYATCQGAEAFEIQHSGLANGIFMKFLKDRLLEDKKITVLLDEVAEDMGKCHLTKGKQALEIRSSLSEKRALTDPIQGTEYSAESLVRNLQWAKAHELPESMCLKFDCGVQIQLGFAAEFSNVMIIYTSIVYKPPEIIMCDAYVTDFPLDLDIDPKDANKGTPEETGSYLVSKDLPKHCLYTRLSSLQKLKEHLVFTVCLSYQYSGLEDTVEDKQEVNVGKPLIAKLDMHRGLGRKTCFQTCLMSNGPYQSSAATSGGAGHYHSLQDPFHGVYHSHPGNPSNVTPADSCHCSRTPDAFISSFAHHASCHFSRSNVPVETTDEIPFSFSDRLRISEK
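Also: fluorogenic LRSR-AMC substrate cleavage by MALT1, 50 min compound preincubation then 4 h reaction at RT, 11-point dilution from 30 µM, scaled between enzyme-free and untreated enzyme controls.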

Which IC50 does the source give for `N#Cc1cc(NC(=O)c2cnn(-c3cc(F)ccc3Cl)c2C(F)(F)F)cnc1-n1nccn1` [Cpd 80, 1-(2-chloro-5-fluorophenyl)-N-(5-cyano-6-(2H-1,2,3-triazol-2-yl)pyridin-3-yl)-5-(trifluoromethyl)-1H-pyrazole-4-carboxamide] here?
Its IC50 is 209 nM.

For `N#Cc1cc(-n2ncc(C(=O)Nc3cnc(-n4nccn4)c(Cl)c3)c2C(F)(F)F)ccc1F` [Cpd 85, N-(5-chloro-6-(2H-1,2,3-triazol-2-yl)pyridin-3-yl)-1-(3-cyano-4-fluorophenyl)-5-(trifluoromethyl)-1H-pyrazole-4-carboxamide], which IC50 is on record?
Its IC50 is 2630 nM.

`N#Cc1cc(-n2ncc(C(=O)Nc3cnc(-n4nccn4)c(C#N)c3)c2C(F)(F)F)ccc1F` [Cpd 86, 1-(3-cyano-4-fluorophenyl)-N-(5-cyano-6-(2H-1,2,3-triazol-2-yl)pyridin-3-yl)-5-(trifluoromethyl)-1H-pyrazole-4-carboxamide] was tested. Which IC50 did it give?
The IC50 was 1550 nM.

Which IC50 does the source give for `Cc1cc(F)ncc1-n1ncc(C(=O)Nc2cnc(-n3nccn3)c(Cl)c2)c1C(F)(F)F` [Cpd 87, N-(5-chloro-6-(2H-1,2,3-triazol-2-yl)pyridin-3-yl)-1-(6-fluoro-4-methylpyridin-3-yl)-5-(trifluoromethyl)-1H-pyrazole-4-carboxamide] here?
The IC50 was 724 nM.

With `Cc1ncccc1-n1ncc(C(=O)Nc2cnc(-n3nccn3)c(C#N)c2)c1C(F)(F)F` [Cpd 88, N-(5-cyano-6-(2H-1,2,3-triazol-2-yl)pyridin-3-yl)-1-(2-methylpyridin-3-yl)-5-(trifluoromethyl)-1H-pyrazole-4-carboxamide] as the compound, how does the IC50 read?
Its IC50 is 794 nM.

For `O=C(Nc1cnc(-n2nccn2)c(Cl)c1)c1cnn(-c2ccc(F)c(F)c2F)c1C(F)(F)F` [Cpd 89, N-(5-chloro-6-(2H-1,2,3-triazol-2-yl)pyridin-3-yl)-5-(trifluoromethyl)-1-(2,3,4-trifluorophenyl)-1H-pyrazole-4-carboxamide], which IC50 is on record?
Its IC50 is 646 nM.

How did the IC50 turn out when `O=C(Nc1cnc(-n2nccn2)c(Cl)c1)c1cnn(-c2c(F)cccc2Cl)c1C(F)(F)F` [Cpd 90, N-(5-chloro-6-(2H-1,2,3-triazol-2-yl)pyridin-3-yl)-1-(2-chloro-6-fluorophenyl)-5-(trifluoromethyl)-1H-pyrazole-4-carboxamide] was run?
The IC50 was 575 nM.

With `Cc1ccncc1-n1ncc(C(=O)Nc2cnc(-n3nccn3)c(C#N)c2)c1C(F)(F)F` [Cpd 91, N-(5-cyano-6-(2H-1,2,3-triazol-2-yl)pyridin-3-yl)-1-(4-methylpyridin-3-yl)-5-(trifluoromethyl)-1H-pyrazole-4-carboxamide] as the compound, how does the IC50 read?
The IC50 was 513 nM.

With `Cc1cccc(F)c1-n1ncc(C(=O)Nc2cnc(-n3nccn3)c(Cl)c2)c1C(F)(F)F` [Cpd 92, N-(5-chloro-6-(2H-1,2,3-triazol-2-yl)pyridin-3-yl)-1-(2-fluoro-6-methylphenyl)-5-(trifluoromethyl)-1H-pyrazole-4-carboxamide] as the compound, how does the IC50 read?
Its IC50 is 501 nM.

For `O=C(Nc1cnc(-n2nccn2)c(Cl)c1)c1cnn(-c2c(Cl)cc(F)cc2Cl)c1C(F)(F)F` [Cpd 93, N-(5-chloro-6-(2H-1,2,3-triazol-2-yl)pyridin-3-yl)-1-(2,6-dichloro-4-fluorophenyl)-5-(trifluoromethyl)-1H-pyrazole-4-carboxamide], which IC50 is on record?
The IC50 was 457 nM.

For `O=C(Nc1cnc(-n2nccn2)c(Cl)c1)c1cnn(-c2c(F)cc(F)cc2Cl)c1C(F)(F)F` [Cpd 94, 1-(2-chloro-4,6-difluorophenyl)-N-(5-chloro-6-(2H-1,2,3-triazol-2-yl)pyridin-3-yl)-5-(trifluoromethyl)-1H-pyrazole-4-carboxamide], which IC50 is on record?
Its IC50 is 447 nM.

For `Cc1nc(Cl)ccc1-n1ncc(C(=O)Nc2cnc(-n3nccn3)c(C#N)c2)c1C(F)(F)F` [Cpd 95, 1-(6-chloro-2-methylpyridin-3-yl)-N-(5-cyano-6-(2H-1,2,3-triazol-2-yl)pyridin-3-yl)-5-(trifluoromethyl)-1H-pyrazole-4-carboxamide], which IC50 is on record?
The IC50 was 316 nM.

Which IC50 does the source give for `Cc1ccc(F)cc1-n1ncc(C(=O)Nc2cnc(-n3nccn3)c(Cl)c2)c1C(F)(F)F` [Cpd 96, N-(5-chloro-6-(2H-1,2,3-triazol-2-yl)pyridin-3-yl)-1-(5-fluoro-2-methylphenyl)-5-(trifluoromethyl)-1H-pyrazole-4-carboxamide] here?
The IC50 was 316 nM.

`N#Cc1cc(NC(=O)c2cnn(-c3ccc(F)c(F)c3)c2C(F)(F)F)cnc1-n1nccn1` [Cpd 104, N-(5-cyano-6-(2H-1,2,3-triazol-2-yl)pyridin-3-yl)-1-(3,4-difluorophenyl)-5-(trifluoromethyl)-1H-pyrazole-4-carboxamide] was tested. Which IC50 did it give?
The IC50 was 245 nM.

For `O=C(Nc1cnc(-n2nccn2)c(Cl)c1)c1cnn(-c2ncc(F)cc2Cl)c1C(F)(F)F` [Cpd 105, 1-(3-chloro-5-fluoropyridin-2-yl)-N-(5-chloro-6-(2H-1,2,3-triazol-2-yl)pyridin-3-yl)-5-(trifluoromethyl)-1H-pyrazole-4-carboxamide], which IC50 is on record?
Its IC50 is 537 nM.

Which IC50 does the source give for `O=C(Nc1cnc(-n2nccn2)c(Cl)c1)c1cnn(-c2ccc(F)c(Cl)c2)c1C(F)(F)F` [Cpd 108, 1-(3-chloro-4-fluorophenyl)-N-(5-chloro-6-(2H-1,2,3-triazol-2-yl)pyridin-3-yl)-5-(trifluoromethyl)-1H-pyrazole-4-carboxamide] here?
Its IC50 is 776 nM.

Which IC50 does the source give for `N#Cc1cc(NC(=O)c2cnn(-c3ccc(F)c(Cl)c3)c2C(F)(F)F)cnc1-n1nccn1` [Cpd 109, 1-(3-chloro-4-fluorophenyl)-N-(5-cyano-6-(2H-1,2,3-triazol-2-yl)pyridin-3-yl)-5-(trifluoromethyl)-1H-pyrazole-4-carboxamide] here?
Its IC50 is 427 nM.

With `N#Cc1ccc(-n2ncc(C(=O)Nc3cnc(-n4nccn4)c(Cl)c3)c2C(F)(F)F)c(Cl)c1` [Cpd 110, 1-(2-chloro-4-cyanophenyl)-N-(5-chloro-6-(2H-1,2,3-triazol-2-yl)pyridin-3-yl)-5-(trifluoromethyl)-1H-pyrazole-4-carboxamide] as the compound, how does the IC50 read?
The IC50 was 123 nM.

How did the IC50 turn out when `O=C(Nc1cnc(-n2nccn2)c(Cl)c1)c1cnn(-c2ccc(F)cc2C(F)(F)F)c1C(F)(F)F` [Cpd 114, N-(5-chloro-6-(2H-1,2,3-triazol-2-yl)pyridin-3-yl)-1-(4-fluoro-2-(trifluoromethyl)phenyl)-5-(trifluoromethyl)-1H-pyrazole-4-carboxamide] was run?
The IC50 was 1000 nM.

Which IC50 does the source give for `N#Cc1cc(NC(=O)c2cnn(-c3ccc(F)cc3C(F)(F)F)c2C(F)(F)F)cnc1-n1nccn1` [Cpd 115, N-(5-cyano-6-(2H-1,2,3-triazol-2-yl)pyridin-3-yl)-1-(4-fluoro-2-(trifluoromethyl)phenyl)-5-(trifluoromethyl)-1H-pyrazole-4-carboxamide] here?
Its IC50 is 363 nM.

How did the IC50 turn out when `COC(C)c1ccccc1-n1ncc(C(=O)Nc2cnc(-n3nccn3)c(Cl)c2)c1C(F)(F)F` (centres unmarked) [Cpd 118, N-(5-Chloro-6-(2H-1,2,3-triazol-2-yl)pyridin-3-yl)-1-(2-(1-methoxyethyl)phenyl)-5-(trifluoromethyl)-1H-pyrazole-4-carboxamide] was run?
The IC50 was 2950 nM.

For `O=C(Nc1cnc(-n2nccn2)c(Cl)c1)c1cnn(-c2ccc(F)nc2)c1C(F)(F)F` [Cpd 121, N-(5-chloro-6-(2H-1,2,3-triazol-2-yl)pyridin-3-yl)-1-(6-fluoropyridin-3-yl)-5-(trifluoromethyl)-1H-pyrazole-4-carboxamide], which IC50 is on record?
Its IC50 is 1170 nM.

How did the IC50 turn out when `CNc1ccc(-n2ncc(C(=O)Nc3cnc(-n4nccn4)c(Cl)c3)c2C(F)(F)F)cn1` [Cpd 122, N-(5-chloro-6-(2H-1,2,3-triazol-2-yl)pyridin-3-yl)-1-(6-(methylamino)pyridin-3-yl)-5-(trifluoromethyl)-1H-pyrazole-4-carboxamide] was run?
The IC50 was 1320 nM.
